From patent US20190100534A1, “Cephem Compounds with Latent Reactive Groups” (Gladius Pharmaceuticals, Inc., priority 2017, published 2019) come the findings set out here.

Assay [1] concerns ENC (ATCC NDM-1). As to the kind of experiment: MIC determination. As to conditions: CAMH broth, 20 μM Apo-Transferrin, 37° C., 18 hours. The class given is cell-based, Enterobacter cloacae. As to the method:
(§1) Sterile technique was used throughout these experiments. Suspensions of organisms were removed from storage (−80° C.) and partially thawed. Partially thawed organisms (1 μL) were inoculated into 3 mL sterile LB Broth in a sterile culture tube and capped, then cultured at 37° C. with shaking for 4-5 hours until the optical density at 600 nm (OD600) was greater than 0.1 on a single beam spectrophotometer.
(§2) The concentration of organisms was adjusted to 0.08-0.1 OD600 (0.5 McFarland units) by dilution with sterile cation-adjusted Meuller-Hinton (CAMH) broth. The suspensions were used within 30 minutes of preparation.
(§3) A stock solution was made of each test compound by measuring 6.4 mg of the compound on an analytical balance and dissolving it in DMSO (1 mL) to get a transparent solution. The solutions were stored at −20° C. and thawed prior to use.
(§4) Sterile CAMH broth (200 μL) containing 20 μM Apo-Transferrin was pipetted into the first row of 8 columns of a sterile, round-bottomed, transparent, 96-well microplate using an 8-channel pipette equipped with sterile tips. One hundred μL was pipetted into the wells of the remaining 11 rows.
(§5) With an 8-channel pipette equipped with sterile tips, 100 μL of the first row solution was transferred to the second row and mixed. The process was repeated for the second to third rows and continued through row 11. One hundred μL from row 11 was removed and discarded so that all 12 rows contained 100 μL. Row 12 contained no compound and rows 1-11 contained 64, 32, 16, 8, 4, 2, 1, 0.5, 0.25, 0.125, […] of a given compound.
(§6) Inoculant suspensions (0.5 μL) were added to the 12 wells of each column. The plates were then covered and incubated at 37° C. overnight for 18 hours.
(§7) For each organism the MIC was determined by identifying the transparent well with the lowest test compound concentration.

Assay [2] has as its system KP(ATCC SHV-18). In words: MIC determination. The class given is cell-based, Klebsiella pneumoniae. As to conditions: CAMH broth, 20 μM Apo-Transferrin, 37° C., 18 hours. The method, boiled down:
(§8)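 Using an iron-depleting medium (CAMH plus 20 μM apo-transferrin), organisms at 0.5 McFarland faced compound from 64 μg/mL downward in twofold steps. Readout: visual, after 18 h at 37 °C.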

Assay [3] has as its system various Pseudomonas strains. In words: MIC determination, summary in text. The settings on record: review of Tables 1-1 and 1-2. The class given is cell-based, Pseudomonas aeruginosa. How it is done:
as §1, §2, §3, §4, §5, §6, §7

The subject of assay [4] is A. baumannii (JMI OXA-58). In words: MIC determination. The class given is cell-based, Acinetobacter baumannii. As to conditions: class D carbapenemase producer, CAMH broth, 20 μM Apo-Transferrin, 37° C., 18 hours; for MIC: Acinetobacter baumannii, read-out: Minimum Inhibitory Concentrations, A. baumannii (JMI OXA-58). How it is done: as §1, §2, §3, §4, §5, §6, §7

Assay [5] deals with A. baumannii. As to the kind of experiment: MIC determination. The class given is cell-based, Acinetobacter baumannii. The settings on record: for MIC: Acinetobacter baumannii, read-out: Minimum Inhibitory Concentrations, A. baumannii. How it is done: as §1, §2, §3, §4, §5, §6, §7
Assay [6] deals with CF (Citrobacter freundii). In words: MIC determination. The class given is cell-based. As to conditions: CAMH broth, 20 μM Apo-Transferrin, 37° C., 18 hours; for MIC: Citrobacter freundii, read-out: Minimum Inhibitory Concentrations, CF. The essentials:
as §8

Assay [7] deals with PM (Proteus mirabilis). As to the kind of experiment: MIC determination. The class given is cell-based. The settings on record: CAMH broth, 20 μM Apo-Transferrin, 37° C., 18 hours; for MIC: Proteus mirabilis, read-out: Minimum Inhibitory Concentrations, PM. The method, boiled down: as §8
Assay [8] deals with SM (Serratia marcescens). In words: MIC determination. As to conditions: CAMH broth, 20 μM Apo-Transferrin, 37° C., 18 hours; for MIC: Serratia marcescens, read-out: Minimum Inhibitory Concentrations, SM. The class given is cell-based. The essentials:
as §8

In assay [9] the test system is ENC (Enterobacter cloacae). In words: MIC determination. The class given is cell-based. As to conditions: CAMH broth, 20 μM Apo-Transferrin, 37° C., 18 hours. The essentials:
as §8

Assay [10] has as its system KP (Klebsiella pneumoniae). As to the kind of experiment: MIC determination. The class given is cell-based. The settings on record: 20 μM Apo-Transferrin, 37° C., 18 hours. The method, boiled down:
as §8

The subject of assay [11] is KOXY (Klebsiella oxytoca). As to the kind of experiment: MIC determination. The class given is cell-based. As to conditions: CAMH broth, 20 μM Apo-Transferrin, 37° C., 18 hours; for MIC: Klebsiella oxytoca, read-out: Minimum Inhibitory Concentrations, KOXY. The method, boiled down:
as §8

The subject of assay [12] is EC (Escherichia coli). As to the kind of experiment: MIC determination. The class given is cell-based. As to conditions: 20 μM Apo-Transferrin, 37° C., 18 hours. The method, boiled down:
as §8

Assay [13] relates to EA (URMC -3). In words: MIC determination. The class given is cell-based. As to conditions: CAMH broth, 20 μM Apo-Transferrin, 37° C., 18 hours. How it is done:
as §1, §2, §3, §4
(§9) To each well of the first row was pipetted 2.0 μL of the 6.4 mg/mL stock test compound stock solution to give 1:100 dilutions and a final concentration of 64 μg/mL and mixed.
as §5, §6, §7

Assay [14] deals with PM (RR -1). In words: MIC determination. As to conditions: CAMH broth, 20 μM Apo-Transferrin, 37° C., 18 hours. The class given is cell-based, Proteus mirabilis. As to the method: as §1, §2, §3, §4, §5, §6, §7
In assay [15] the test system is both Acinetobacter baumannii strains tested. As to the kind of experiment: MIC determination, summary in text. The class given is cell-based. As to conditions: review of Table 2. How it is done:
as §1, §2, §3, §4
With an 8-channel pipette equipped with sterile tips, 100 μL of the first row solution was transferred to the second row and mixed. […]
as §7

Assay [16] has as its system EC(KB1 CTX-M-14). In words: MIC determination. The class given is cell-based, Escherichia coli. The settings on record: for MIC: Escherichia coli, 18 h, read-out: Minimum Inhibitory Concentrations, EC(KB1 CTX-M-14). The essentials:
as §8

Assay [17] relates to EC(KB2 CTX-M-14). As to the kind of experiment: MIC determination. The settings on record: for MIC: Escherichia coli, 18 h, read-out: Minimum Inhibitory Concentrations, EC(KB2 CTX-M-14). The class given is cell-based, Escherichia coli. The essentials:
as §8

The test system of assay [18] is various enteric bacteria. In words: MIC determination, summary in text. The class given is cell-based. The settings on record: review of Tables 3-1 to 3-6. How it is done: as §1, §2, §3, §4, §9, §5, §6, §7
[19] abbreviates: A. baumannii, CAMH broth, 20 μM Apo-Transferrin, 37° C., 18 hours.
Where [20] appears, read: first KP column of Table 3-1, CAMH broth.
Where [21] appears, read: second KP column of Table 3-1, CAMH broth.

Regarding `CC(C)(O/N=C(\C(=O)N[C@@H]1C(=O)N2C(C(=O)O)=C(C=Cc3ccc(C[N+]4(C)CCc5cc(O)c(O)cc5C4)cc3)CS[C@H]12)c1csc(N)n1)C(=O)O` (mixture of isomers) [Compound 407, 2-(4-((E/Z)-2-((6R,7R)-7-((Z)-2-(2-aminothiazol-4-yl)-2-(((2-carboxypropan-2-yl)oxy)imino)acetamido)-2-carboxy-8-oxo-5-thia-1-azabicyclo[4.2.0]oct-2-en-3 yl)vinyl)benzyl)-6,7-dihydroxy-2-methyl-1,2,3,4-tetrahydroisoquinolin-2-ium], the “Mimimum Inhibitory Concentrations, ENC (ATCC NDM-1)” value in [1] is given as over 64 microgram/mL. Moreover, the “Minimum Inhibitory Concentrations, KP(ATCC SHV-18)” value in [2] came to 2 microgram/mL. The “MICs for various Pseudomonas strains, in words” value in [3] is reported as “low microgram/mL MICs”. Moreover, the MIC in assay [4] is 16 µg/mL; in assay [5] (setting [19]), 2 µg/mL; in [6] it was at most 0.06 µg/mL; in assay [7], at most 0.06 µg/mL; in assay [8] it was 0.25 µg/mL; in [11] it was 1 µg/mL. The MIC was determined as 0.25 µg/mL in assay [12] (Escherichia coli, first EC column of Table 3-1, CAMH broth, read-out: Minimum Inhibitory Concentrations, EC); 2 µg/mL in assay [16]; 64 µg/mL in assay [17]. Also, in [9], the “Mimimum Inhibitory Concentrations, ENC” value was found to be 4 microgram/mL. Also, the “Minimum Inhibitory Concentrations, KP” value in assay [10] (setting [20]) and in assay [10] (setting [21]) was 0.25 microgram/mL throughout. Also, the “Minimum Inhibitory Concentrations, EC” value in [12] (Table 3-1, CAMH broth) is recorded as 0.25 microgram/mL. Further, the “Mimimum Inhibitory Concentrations, EA (URMC -3)” value in [13] was 2 microgram/mL. Moreover, the “Mimimum Inhibitory Concentrations, PM (RR -1)” value in assay [14] is at most 0.06 microgram/mL. The “MICs for both Acinetobacter baumannii strains tested, in words” value in [15] is “lower microgram/mL MICs”.

For `CC(C)(O/N=C(\C(=O)N[C@@H]1C(=O)N2C(C(=O)O)=C(C=Cc3ccc(C[n+]4ccc(-c5ccc(O)c(O)c5)cc4)cc3)CS[C@H]12)c1csc(N)n1)C(=O)O` (mixture of isomers) [Compound 412, 1-(4-((E/Z)-2-((6R,7R)-7-((Z)-2-(2-aminothiazol-4-yl)-2-(((2-carboxypropan-2-yl)oxy)imino)acetamido)-2-carboxy-8-oxo-5-thia-1-azabicyclo[4.2.0]oct-2-en-3-yl)vinyl)benzyl)-4-(3,4-dihydroxyphenyl)pyridin-1-ium], in assay [1], the “Mimimum Inhibitory Concentrations, ENC (ATCC NDM-1)” value is over 64 microgram/mL. For the same molecule, the “Minimum Inhibitory Concentrations, KP(ATCC SHV-18)” value in assay [2] is 1 microgram/mL. For the same molecule, the MIC in assay [4] was over 64 µg/mL; in [5] (setting [19]) it was 8 µg/mL; in [6], at most 0.06 µg/mL; in assay [7] it was at most 0.06 µg/mL; in assay [8], 0.5 µg/mL; in assay [11], 0.5 µg/mL. Besides, the MIC in [16] is 0.5 µg/mL; in assay [17], 1 µg/mL. For the same molecule, the “Mimimum Inhibitory Concentrations, ENC” value in assay [9] came out at 4 microgram/mL. In addition, the “Minimum Inhibitory Concentrations, KP” value in assay [10] (setting [20]) and in assay [10] (setting [21]) was 2 microgram/mL each time. Besides, the “Mimimum Inhibitory Concentrations, EA (URMC -3)” value in assay [13] is given as at most 0.06 microgram/mL. In addition, the “Mimimum Inhibitory Concentrations, PM (RR -1)” value in assay [14] is given as at most 0.06 microgram/mL.

Turning to `CC(C)(O/N=C(\C(=O)N[C@@H]1C(=O)N2C(C(=O)O)=C(C=Cc3ccc(C[n+]4ccc5cc(O)c(O)cc5c4)cc3)CS[C@H]12)c1csc(N)n1)C(=O)O` (mixture of isomers) [Compound 435, 2-(4-((E/Z)-2-((6R,7R)-7-((Z)-2-(2-aminothiazol-4-yl)-2-(((2-carboxypropan-2-yl)oxy)imino)acetamido)-2-carboxy-8-oxo-5-thia-1-azabicyclo[4.2.0]oct-2-en-3-yl)vinyl)benzyl)-6,7-dihydroxyisoquinolin-2-ium], the “Mimimum Inhibitory Concentrations, ENC (ATCC NDM-1)” value in assay [1] is recorded as over 64 microgram/mL. In addition, in [2], the “Minimum Inhibitory Concentrations, KP(ATCC SHV-18)” value turned out to be 0.25 microgram/mL. Also, the “MICs for various Pseudomonas strains, in words” value in assay [3] is reported as “low microgram/mL MICs”. Further, the “Minimum Inhibitory Concentrations, A. baumannii (JMI OXA-58)” value in assay [4] is over 64 microgram/mL. Besides, in assay [5] (setting [19]), the “Minimum Inhibitory Concentrations, A. baumannii” value came to 1 microgram/mL. The “MICs for an Acinetobacter baumannii strain, in words” value in assay [5] (review of Table 2) is “low microgram/mL MICs”. Moreover, in assay [6], the “Minimum Inhibitory Concentrations, CF” value is given as at most 0.06 microgram/mL. Moreover, the “Minimum Inhibitory Concentrations, PM” value in [7] is on record as at most 0.06 microgram/mL. Further, the “Minimum Inhibitory Concentrations, SM” value in assay [8] came out at 0.25 microgram/mL. The “Mimimum Inhibitory Concentrations, ENC” value in [9] is recorded as 16 microgram/mL. Besides, the “Minimum Inhibitory Concentrations, KP” value in assay [10] (setting [20]) and in assay [10] (setting [21]) was at most 0.06 microgram/mL in each case. Also, the “Minimum Inhibitory Concentrations, KOXY” value in [11] is reported as at most 0.06 microgram/mL. Besides, the “Minimum Inhibitory Concentrations, EC” value in [12] (Table 3-1, CAMH broth) is listed as at most 0.06 microgram/mL; in [12] (first EC column of Table 3-1, CAMH broth), at most 0.06 microgram/mL. The “Mimimum Inhibitory Concentrations, EA (URMC -3)” value in assay [13] was 0.5 microgram/mL. Further, the “MICs for various enteric bacteria, in words” value in assay [18] is recorded as “low microgram/mL MICs”. The “Mimimum Inhibitory Concentrations, PM (RR -1)” value in [14] was at most 0.06 microgram/mL. For the same molecule, the “Minimum Inhibitory Concentrations, EC(KB1 CTX-M-14)” value in assay [16] (EC(KB1 CTX-M-14), CAMH broth, 20 μM Apo-Transferrin, 37° C., 18 hours) was at most 0.06 microgram/mL. Further, the “Minimum Inhibitory Concentrations, EC(KB2 CTX-M-14)” value in assay [17] (EC(KB2 CTX-M-14), CAMH broth, 20 μM Apo-Transferrin, 37° C., 18 hours) was at most 0.06 microgram/mL.
